Tests used:
LNCaP cells = test: Trypan blue exclusion assay of infected LNCaP cells; assay type: cell-based, human; conditions: for effect of inhibitor on EHDV-TAU-LNCaP-induced cell death: Q-VD-OPH 20 μM, Necrostatin-1 75 μM, 45 hours
Protocol: LNCaP cells were infected (+) or not (−) with EHDV-TAU-LNCaP (0.05 PFU/cell, for 45 hours) and treated (+) or not (−) with Q-VD-OPH (20 μM, for 45 hours during infection, or 20 hours during STS treatment), Necrostatin-1 (75 μM, for 45 hours) or staurosporine (STS, 1 μM, for 20 hours; serves as positive control of apoptosis induction). Graph depicts mean±SE (n=3) of the percentage of cell death under the indicated conditions. *p<0.05; **p<0.005.
LNCaP cells were infected or not with EHDV-TAU-LNCaP (0.05 PFU/cell, for 45 hours) and treated, or not, with IFNα or the indicated EpMs. Graph depicts mean±SE (n=5) of percentage of cell death under the indicated conditions; *p<0.05; ***p<0.0005.
Trypan blue exclusion assay—2×10^5 LNCaP cells/well in a 12-well plate were infected, or not, under the indicated experimental conditions. For each well, detached and attached cells were collected together and mixed with 0.5% trypan blue at a 1:1 ratio. Cells were classified by trypan blue exclusion by light microscopy. Trypan blue (0.5%) was from Beit Haemek Biological Industries, Israel (cat. #03-102-1B).

LNCaP-JAK1 cells = test: Immunoblot of NS3 in infected LNCaP-JAK1 cells; conditions: for effect of treatment on NS3 expression in EHDV-TAU-LNCaP-infected cells: LNCaP-JAK1, Baricitinib 0.5 μM, IFNα 200 U/ml, IFNγ 25 ng/ml, prior to and during infection

Q: What does the source list for O=C(O)[C@H](Cc1c[nH]c2ccccc12)N1C(=O)c2ccccc2C1=O [RG108, N-phthalyl-L-tryptophan]?
A: protection from EHDV-TAU-LNCaP-induced cell death (LNCaP cells; RG108 alone): partial protection; effect on virus-induced cell death (LNCaP cells; combination of IFN and RG108, relative to untreated infected cells): reduced it to half

Q: “IL-6: Human IL-6 (PeproTech), pleiotropic cytokine” was tested. Which “effect on productive EHDV-TAU-LNCaP infection” value (LNCaP-JAK1 cells; LNCaP-JAK1, IL-6) did it give?
A: reduce productive EHDV-TAU-LNCaP infection

Q: Which results are given for COC(=O)CC(NC(=O)C(NC(=O)c1ccc2ccccc2n1)C(C)C)C(=O)COc1c(F)cccc1F (stereo not shown) [Q-VD-OPh, Quinolyl-valyl-O-methylaspartyl-[-2,6-difluorophenoxy]-methyl ketone, reference compound]?
A: effect on NS3 expression in infected, IL-6-treated cells (LNCaP-JAK1 cells; LNCaP-JAK1, Q-VD-OPh 20 μM, IL-6 5 ng/ml): failed to rescue NS3 expression; effect of inhibitor on EHDV-TAU-LNCaP-induced cell death (LNCaP cells): partial reduction

Q: Which “effect of inhibitor on EHDV-TAU-LNCaP-induced cell death” value (LNCaP cells) does the source give for CN1C(=O)C(Cc2c[nH]c3ccccc23)NC1=S (stereo not shown) [Necrostatin-1] here?
A: partial reduction

Q: What does the source list for IFNα?
A: effect of treatment on NS3 expression in EHDV-TAU-LNCaP-infected cells (LNCaP-JAK1 cells): abolished NS3 expression; effect on EHDV-TAU-LNCaP-induced cell death (LNCaP cells; IFN alone): minimal reduction

Q: For Nc1ncn([C@H]2C[C@H](O)[C@@H](CO)O2)c(=O)n1 [5AC, 5-Aza-2′-deoxycytidine], which “effect on infection / virus-induced death” value (LNCaP cells; combination of 5AC and IFNα, compared to IFNα or 5AC alone) is on record?
A: reduced infection to a greater and significant degree

B1: IFNγ: human IFNγ (PeproTech) (protein, UniProt P01579 24-161, looked up)
Interferon gamma: QDPYVKEAENLKKYFNAGHSDVADNGTLFLGILKNWKEESDRKIMQSQIVSFYFKLFKNFKDDQSIQKSVETIKEDMNVKFFNSNKKKRDDFEKLTNYSVTDLNVQRKAIHELIQVMAELSPAAKTGKRKRSQMLFRG
Q: B1 was tested. Which “effect of treatment on NS3 expression in EHDV-TAU-LNCaP-infected cells” value (LNCaP-JAK1 cells) did it give?
A: abrogated NS3 production

Source: US11484558B2, “Epizootic hemorrhagic disease virus—tel aviv university (EHDV-TAU)—oncolytic virus for treating cancer” (Ramot at Tel-Aviv University Ltd., priority 2017, dated 2022)
